Test results published in the NIST ThermoML archive (doi:10.1021/je7000232).
± gives the expanded uncertainty stated by the source.

Tests used:
[1] = excess molar enthalpy (molar enthalpy of mixing); xn = mol fraction of the nth substance listed; settings: 101 kPa, Liquid
[2] = xn = mol fraction of the nth substance listed; settings: 293.15 K, 101 kPa, Liquid, Capillary tube (Ostwald / Ubbelohde) method
[3] = Liquid, Closed cell (Static) method

CC(O)C(=O)[O-].C[N+](C)(C)CCO [choline lactate] + O
[1]
Settings | excess molar enthalpy [kcal/mol]
303.15 K, x2 = 0.1585 | -0.938 ± 0.0765
303.15 K, x2 = 0.2269 | -1.51 ± 0.122
303.15 K, x2 = 0.3051 | -2.04 ± 0.165
303.15 K, x2 = 0.3528 | -2.4 ± 0.194
303.15 K, x2 = 0.4853 | -3.35 ± 0.263
303.15 K, x2 = 0.671 | -4.12 ± 0.335
303.15 K, x2 = 0.8719 | -4.37 ± 0.359
303.15 K, x2 = 0.9078 | -3.55 ± 0.287
303.15 K, x2 = 0.9751 | -1.87 ± 0.153
303.15 K, x2 = 0.9878 | -0.604 ± 0.0502
313.15 K, x2 = 0.1687 | -0.723 ± 0.0598
313.15 K, x2 = 0.2123 | -1.1 ± 0.0908
313.15 K, x2 = 0.3065 | -1.57 ± 0.127
313.15 K, x2 = 0.3943 | -2.11 ± 0.17
313.15 K, x2 = 0.5019 | -2.6 ± 0.21
313.15 K, x2 = 0.603 | -2.9 ± 0.234
313.15 K, x2 = 0.738 | -3.3 ± 0.263
313.15 K, x2 = 0.8794 | -3.48 ± 0.287
313.15 K, x2 = 0.9535 | -2.47 ± 0.198
313.15 K, x2 = 0.9769 | -1.55 ± 0.127
323.15 K, x2 = 0.16 | -0.368 ± 0.0311
323.15 K, x2 = 0.2662 | -0.649 ± 0.055
323.15 K, x2 = 0.331 | -0.856 ± 0.0693
323.15 K, x2 = 0.5059 | -1.55 ± 0.127
323.15 K, x2 = 0.6257 | -2.15 ± 0.174
323.15 K, x2 = 0.7785 | -2.6 ± 0.21
323.15 K, x2 = 0.8805 | -2.09 ± 0.17
323.15 K, x2 = 0.9555 | -1.1 ± 0.0908
323.15 K, x2 = 0.9884 | -0.239 ± 0.021

[2]
Settings | viscosity [mPa·s]
x2 = 0.0272 | 5850
x2 = 0.382 | 940 ± 440
x2 = 0.546 | 336 ± 94
x2 = 0.731 | 75 ± 10
x2 = 0.878 | 12.5 ± 1.1
x2 = 0.915 | 6.5 ± 0.4
x2 = 0.941 | 3.9 ± 0.3

O [water]
[3]
Settings | vapor or sublimation pressure [kPa]
303.15 K | 4.24 ± 0.33
313.15 K | 7.38 ± 0.33
323.15 K | 12.34 ± 0.35
